Test results reported in US20050228016A1, “TETRAHYDROQUINOLINES FOR MODULATING THE EXPRESSION OF EXOGENOUS GENES VIA AN ECDYSONE RECEPTOR COMPLEX” (priority 2002, published 2005).

Tests used:
[1] = test system: GAL4 DBD-CfEcR(DEF)/VP16AD-MmRXRE; details: CHO 13B3 clone, 48 h, average of two wells
Text: GAL4 DBD-CfEcR(DEF)/VP16AD-MmRXRE: The wild-type D, E, and F domains from spruce budworm Choristoneura fumiferana EcR (“CfEcR-DEF”; SEQ ID NO: 1) were fused to a GAL4 DNA binding domain (“Gal4DBD1-147”; nucleotides 31 to 471 of SEQ ID NO: 2) and placed under the control of the SV40e promoter of pM vector (PT3119-5, Clontech, Palo Alto, Calif.). The D and E domains from Mus Musculus RXR (“MmRXR-DE”; SEQ ID NO: 22) were fused to the transactivation domain from VP16 (“VP16AD”; SEQ ID NO: 5) and placed under the control of the SV40e promoter of the pVP16 vector (PT3127-5, Clontech, Palo Alto, Calif.).
CHO cells were transiently transfected with transcription cassettes for GAL4 DBD-CfEcR(DEF) and for VP16AD-MmRXRE controlled by SV40e promoters. Stably transfected cells were selected using Hygromycin. Individually isolated CHO cell clones were transiently transfected with a GAL4 RE-luciferase reporter (pFR-Luc, Stratagene, La Jolla, Calif.). The 13B3 clone was selected using Zeocin.
Cells were trypsinized and diluted to a concentration of 2.5×10^4 cells mL. 100 μL of cell suspension was placed in each well of a 96 well plate and incubated at 37° C. under 5% CO2 for 24 h. Ligand stock solutions were prepared in DMSO and diluted 300 fold for all treatments.
Luciferase reporter gene expression was measured 48 h after cell treatment using Bright-Glo™ Luciferase Assay System from Promega (E2650). Luminescence was detected at room temperature using a Dynex MLX microtiter plate luminometer.
Each assay was conducted in two separate wells, and the two values were averaged. Fold inductions were calculated by dividing relative light units (“RLU”) in ligand treated cells with RLU in DMSO treated cells.

Gal4DBD/AaEcR (DEF) = biological target: T1, Gal4DBD/AaEcR (DEF) (Aedes aegypti, UniProt P49880); experiment: cell-based; format: cell-based; details: 33 μM; 3T3 cells; 48 h; average of two wells
T1 construct: The wildtype D, E, and F domains from mosquito Aedes aegypti EcR; expressed in transfected cells; host or cells: 3T3 cells
T1 sequence (P28704 286-520 A311G/G315S/G445S/I449V): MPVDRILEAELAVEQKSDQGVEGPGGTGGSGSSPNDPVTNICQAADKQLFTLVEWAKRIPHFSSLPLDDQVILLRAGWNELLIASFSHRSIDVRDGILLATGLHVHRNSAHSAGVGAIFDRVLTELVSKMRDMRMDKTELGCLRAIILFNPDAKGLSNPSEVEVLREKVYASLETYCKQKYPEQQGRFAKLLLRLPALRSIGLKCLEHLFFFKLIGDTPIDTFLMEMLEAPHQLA
T1 sequence (P49880 405-776): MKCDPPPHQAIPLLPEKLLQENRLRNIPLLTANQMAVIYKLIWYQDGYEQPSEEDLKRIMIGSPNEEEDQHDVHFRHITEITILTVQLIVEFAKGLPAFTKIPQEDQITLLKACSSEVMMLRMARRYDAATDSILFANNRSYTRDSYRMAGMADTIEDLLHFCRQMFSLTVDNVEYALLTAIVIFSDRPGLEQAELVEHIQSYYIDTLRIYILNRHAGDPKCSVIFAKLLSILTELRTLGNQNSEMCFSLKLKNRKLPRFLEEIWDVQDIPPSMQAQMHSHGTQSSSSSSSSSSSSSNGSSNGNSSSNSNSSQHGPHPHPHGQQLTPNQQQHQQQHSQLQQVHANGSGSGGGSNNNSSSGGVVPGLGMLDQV
In short: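 Mouse 3T3 cells transiently co-transfected with Gal4DBD/AaEcR (DEF) and pFRLuc (5× GAL4 response element, firefly luciferase reporter). Ligand added in serum medium 4 h after transfection; single-dose testing at 33 μM.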

[2] = biological target: T2, Bombyx mori EcR (VP16-BmEcR, CVBE) (Bombyx mori, UniProt P49881); experiment: Z3 assay (HEK-293 clone Z3 with CVBE and 6x EcRE LacZ, β-galactosidase reporter); format: cell-based; details: 48 h, average of two wells
T2 construct: expressed in transfected cells
T2 sequence (P49881 86-606): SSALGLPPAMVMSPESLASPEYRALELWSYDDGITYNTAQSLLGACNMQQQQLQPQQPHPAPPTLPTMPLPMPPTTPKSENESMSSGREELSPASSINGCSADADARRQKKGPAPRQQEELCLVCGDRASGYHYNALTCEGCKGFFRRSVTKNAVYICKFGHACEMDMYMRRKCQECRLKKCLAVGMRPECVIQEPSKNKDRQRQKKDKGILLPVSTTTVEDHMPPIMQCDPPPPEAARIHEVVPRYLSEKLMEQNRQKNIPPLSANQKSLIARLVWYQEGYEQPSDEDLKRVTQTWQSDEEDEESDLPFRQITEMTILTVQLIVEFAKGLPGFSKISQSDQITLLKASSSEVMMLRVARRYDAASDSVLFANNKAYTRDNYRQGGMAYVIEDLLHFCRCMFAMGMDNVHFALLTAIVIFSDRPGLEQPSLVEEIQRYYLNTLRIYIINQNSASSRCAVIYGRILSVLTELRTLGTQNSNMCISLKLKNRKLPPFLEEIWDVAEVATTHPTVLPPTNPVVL

| Compound | Fold Induction Average, 13B3V1 Assay 33 μM [1] | Fold Induction Average, AA_3T3V1 Assay 33 μM (Gal4DBD/AaEcR (DEF)) | Fold Induction Average, Z3V1 Assay 33 μM [2] |
| --- | --- | --- | --- |
| CC1CC(Nc2ccccc2)c2ccccc2N1C(=O)c1cccc([N+](=O)[O-])c1 (centres unmarked) [Compound I-158] | 118 fold | 207 fold | 18 fold |
| Cc1ccc(NC2CC(C)N(C(=O)c3cccc([N+](=O)[O-])c3)c3ccc(C)cc32)cc1 (centres unmarked) [Compound I-154] | 4 fold | 1 fold | 1 fold |
| Cc1ccc(C(=O)N2c3ccccc3C(Nc3ccccc3)CC2C)cc1 (mixture of isomers) [Compound I-39] | 1 fold | 182 fold | 4 fold |
| CC1CC(Nc2ccccc2)c2ccccc2N1C(=O)c1cccc(Br)c1 (centres unmarked) [Compound I-148] | 1 fold | 47 fold | 19 fold |
| CC(=O)N1c2ccccc2C(N(C(=O)c2ccccc2F)c2ccccc2)CC1C (centres unmarked) [Compound I-185] | 1 fold |  | 1 fold |
| Cc1ccc(C(=O)N2c3ccccc3C(Nc3ccccc3Cl)CC2C)cc1 (mixture of isomers) [Compound I-41] | 1 fold | 2 fold | 1 fold |
| Cc1ccc(NC2CC(C)N(C(=O)c3ccc(Cl)cc3)c3ccc(C)cc32)cc1 (centres unmarked) [Compound I-144] | 4 fold | 73 fold | 1 fold |
| COc1cccc(N(C(C)=O)C2CC(C)N(C(=O)c3ccccc3)c3ccccc32)c1 (centres unmarked) [Compound I-140] | 2 fold | 1 fold | 1 fold |
| CC1CC(N(C(=O)C2CC2)c2ccccc2)c2ccccc2N1C(=O)C1CC1 (centres unmarked) [Compound I-155] | 1 fold | 1 fold | 1 fold |
| Cc1ccc(N[C@@H]2C[C@H](C)N(C(=O)c3ccc(C)c(F)c3)c3ccc(C)cc32)cc1 (relative stereo) [Compound I-28] | 1 fold | 1 fold | 1 fold |
| CC(=O)N(c1ccc(C)cc1)C1CC(C)N(C(=O)c2ccccc2)c2ccccc21 (centres unmarked) [Compound I-149] | 3 fold | 1 fold |  |
| COc1ccc(C(=O)N(c2ccccc2)C2CC(C)N(C(=O)c3ccc(Cl)cc3)c3ccccc32)cc1 (centres unmarked) [Compound I-120] | 1 fold | 249 fold |  |
| CC(=O)N(c1ccccc1)C1CC(C)N(C(=O)C=Cc2ccccc2)c2ccccc21 (centres unmarked) [Compound I-119] | 3 fold | 1 fold | 1 fold |
| Cc1ccc(NC2CC(C)N(C(=O)c3ccc(F)cc3)c3ccc(C)cc32)cc1 (centres unmarked) [Compound I-124] | 3 fold | 1 fold |  |
| COc1ccc(C=CC(=O)N2c3ccccc3[C@@H](Nc3ccccc3)C[C@@H]2C)cc1OC (relative stereo) [Compound I-146] | 1 fold | 4 fold | 1 fold |
| COc1ccc(C(=O)N2c3ccc(C)cc3[C@H](Nc3ccc(C)cc3)C[C@@H]2C)cc1 (stereo in doubt) [Compound I-152] | 2 fold | 1 fold | 1 fold |

| Compound | Fold Induction Average, 13B3V1 Assay 33 μM [1] | Fold Induction Average, AA_3T3V1 Assay 33 μM (Gal4DBD/AaEcR (DEF)) | Fold Induction Average, Z3V1 Assay 33 μM [2] |
| --- | --- | --- | --- |
| Cc1ccc(C(=O)N(c2ccccc2)C2CC(C)N(C(=O)c3ccc(Cl)cc3)c3ccccc32)cc1 (centres unmarked) [Compound I-161] | 1 fold | 28 fold |  |
| CCCc1ccc(C(=O)N2c3ccccc3C(Nc3ccccc3)CC2C)cc1 (centres unmarked) [Compound I-173] | 1 fold | 172 fold | 3 fold |
| Cc1ccc(NC2CC(C)N(C(=O)c3ccc4c(c3)OCO4)c3ccc(C)cc32)cc1 (centres unmarked) [Compound I-34] | 1 fold | 1 fold | 1 fold |
| CCCCCc1ccc(C(=O)N2c3ccccc3C(Nc3ccccc3)CC2C)cc1 (centres unmarked) [Compound I-138] | 1 fold | 5 fold | 1 fold |
| CC1CC(Nc2ccccc2)c2ccccc2N1C(=O)C=Cc1ccccc1 (centres unmarked) [Compound I-163] | 26 fold | 4 fold | 27 fold |
| C[C@H]1C[C@H](Nc2ccccc2)c2ccccc2N1C(=O)c1ccc(C(F)(F)F)c(F)c1 (relative stereo) [Compound I-17] | 1 fold | 135 fold | 9 fold |
| COc1ccc(C(=O)N2c3ccccc3C(N(C(=O)c3cccs3)c3ccccc3)CC2C)cc1 (centres unmarked) [Compound I-131] | 1 fold | 162 fold | 4 fold |
| C[C@H]1C[C@H](Nc2ccccc2)c2ccccc2N1C(=O)c1ccc(F)c(F)c1 (relative stereo) [Compound I-15] | 1 fold | 132 fold | 20 fold |
| COc1cccc(C(=O)N2c3ccccc3C(Nc3ccccc3)CC2C)c1C (centres unmarked) [Compound I-50] | 1 fold | 21 fold | 115 fold |
| COc1cccc(C(=O)N2c3ccc(F)cc3C(Nc3ccc(F)cc3)CC2C)c1C (centres unmarked) [Compound I-58] | 30 fold | 124 fold | 147 fold |
| CC1CC(N(C(=O)c2cccc(Br)c2)c2ccccc2)c2ccccc2N1C(=O)c1cccc(O)c1 (centres unmarked) [Compound I-166] | 2 fold | 58 fold | 1 fold |
| Cc1ccc(C(=O)N2c3ccccc3[C@@H](Nc3ccccc3)C[C@@H]2C)cc1F (relative stereo) [Compound I-16] | 1 fold | 376 fold | 27 fold |
| C[C@H]1C[C@H](Nc2ccc(F)cc2)c2cc(F)ccc2N1C(=O)c1ccc(F)c(F)c1 (relative stereo) [Compound I-26] | 95 fold | 124 fold | 152 fold |
| Cc1ccc(N[C@H]2C[C@H](C)N(C(=O)c3ccc(C)c(F)c3)c3ccc(C)cc32)cc1 (relative stereo) [Compound I-22] | 1 fold | 132 fold | 3 fold |
| Cc1ccc(N(C(=O)c2ccc3c(c2)OCO3)C2CC(C)N(C(=O)c3ccc4c(c3)OCO4)c3ccc(C)cc32)cc1 (centres unmarked) [Compound I-194] | 1 fold |  |  |
